# What was measured:
# SK-BR-3 = test: In vitro cytotoxicity MTT assay; format: cell-based; details: Homo sapiens, 72 h, IC50 ± SD
# Protocol: (§1) Six different cell lines were used, including human breast cancer cell line MDA-MB-231 (6×10^3), MDA-MB-453 (2.4×10^4), SK-BR-3 (6×10^3), human breast epithelial cell line M10 (6×10^3), human gastric carcinoma NCI-N87 (2.4×10^4), and human colorectal adenocarcinoma SW48 (2.4×10^4), and seeded in a 96 well plate. Cell lines were obtained from Bioresource Collection and Research Center, BCRC, Taiwan. […] After 72 h, MTT assay (Cayman™) was used to determine the cellular viability.
# M10 = test: In vitro cytotoxicity MTT assay; format: cell-based, human; details: Homo sapiens, M10, 72 h, IC50 ± SD
# Protocol: as §1
# MDA-MB-231 = test: In vitro cytotoxicity MTT assay; format: cell-based, human; details: Homo sapiens, MDA-MB-231, 72 h, IC50 ± SD
# Protocol: as §1
# MDA-MB-453 = test: In vitro cytotoxicity MTT assay; format: cell-based, human; details: Homo sapiens, MDA-MB-453, 72 h, IC50 ± SD
# Protocol: as §1
# SW48 = test: In vitro cytotoxicity MTT assay; format: cell-based, human; details: Homo sapiens, SW48, 72 h, IC50 ± SD
# Protocol: as §1
# M10 cells [1] = test: Cell cycle arrest by PI flow cytometry; format: cell-based, human; details: M10, 12.5 μM, 72 h
# Protocol: (§2) A PI/RNase staining assay (BD Bioscience™) was performed to reveal the presence of cell cycle arrest and apoptotic cells after treatment with GNTbm compounds, Chidamide and Entinostat. […] After treatment cells were harvested, fixed with 80% ethanol for 24 h, washed with 1×PBS and stained with PI/RNase for 15 min at room temperature. The cells were then analyzed using Flow Cytometer within 1 h.
# MDA-MB-231 cells [2] = test: Cell cycle arrest by PI flow cytometry; format: cell-based, human; details: MDA-MB-231, 3.125 μM, 72 h
# Protocol: as §2
# SW48 cells [3] = test: Cell cycle arrest by PI flow cytometry; format: cell-based, human; details: SW48, 3.125 μM, 72 h
# Protocol: as §2
# M10 cells [4] = test: Cell apoptosis (sub-G1) by PI flow cytometry; format: cell-based, human; details: M10, 12.5 μM, 72 h
# Protocol: as §2
# MDA-MB-231 cells [5] = test: Cell apoptosis (sub-G1) by PI flow cytometry; format: cell-based, human; details: MDA-MB-231, 6.25 μM, 72 h
# Protocol: as §2
# SW48 cells [6] = test: Cell apoptosis (sub-G1) by PI flow cytometry; format: cell-based, human; details: SW48, 6.25 μM, 72 h
# Protocol: as §2
# [7] = system: histone H3 acetylation (AcH3) in MDA-MB-231 cells; test: Western blot of histone H3 acetylation; format: cell-based, human; details: MDA-MB-231, 1.0 μM, 24 h
# Protocol: Human breast cancer MDA-MB-231 cells and human colorectal adenocarcinoma SW48 cells were analyzed. MDA-MB-231 and SW48 were obtained from Bioresource Collection and Research Center (BCRC, Taiwan). MDA-MB-231 and SW48 were grown at 37° C. under humidified air supplemented without CO2 in Leibovitz's L-15 (cat. #11415114, Thermo Fisher Scientific) containing 10% heat inactivated fetal calf serum (Thermo Scientific), 1× concentration of MycoZap antibiotics (cat. #VZA-2011, Lonza). Cells were treated with GNTbm compounds series, Chidamide or Entinostat for different time periods or at varied doses. Cells were treated with indicated doses for 24 h or cells were treated with indicated doses for different time periods. Cell pellets were dissolved with RIPA buffer (cat. #20-188, Merck) with protease and phosphatase inhibitors (cat. #K272, BioVision) and clarified by centrifugation. Equal amounts of total protein were resolved by SDS-PAGE and transferred to polyvinylidene fluoride membranes (cat. #1620177, BIO-RAD). Blots were incubated with primary antibodies against β-actin (cat. #sc-47778, Santa Cruz Biotechnology), Histone 3ac (cat. #61637, Active Motif), and HRP secondary antibodies anti-rabbit (ab6721, Abcam) and anti-mouse (sc-2005, Santa Cruz). Blots were developed using the ECL Western Blotting Substrate (cat. #sc-2048, Santa Cruz Biotechnology) Image blots were analyzed with the iBright FL1000 (Thermo Fisher Scientific) imaging systems.
# HDAC11 = HDAC11 (Homo sapiens (Human), UniProt Q96DB2); test: HDACs 1-11 enzymatic inhibition by BPS Bioscience
# Protocol: HDAC assay was performed according to standard Protocols (Fluorgenic HDACs 1-11 assay kit, BPS Bioscience™). […] After 0.5 h, assay developer was added to the samples and the absorbance was read at fluorogenic wavelength. The relative inhibition to HDACs 1, 2, 3, 4, 5, 6, 7, 8, 9, and 11 activities was determined in each sample. […] All of the compounds were dissolved in DMSO. The serial dilution of the compounds was first performed in 100% DMSO with the highest concentration at 1 mM. Each intermediate compound dilution (in 100% DMSO) would then get directly diluted 10× fold into assay buffer for an intermediate dilution of 10% DMSO in HDAC assay buffer and 5 μl of the dilution was added to a 50 μl reaction so that the final concentration of DMSO is 1% in all of the reactions. The enzymatic reactions for the HDAC enzymes were conducted in duplicate at 37° C. for 30 minutes in a 50 μl mixture containing HDAC assay buffer, 5 μg BSA, an HDAC substrate, a HDAC enzyme and a test compound. After enzymatic reactions, 50 μl of 2×HDAC Developer was added to each well for the HDAC enzymes and the plate was incubated at room temperature for an additional 15 minutes. Fluorescence intensity was measured at an excitation of 360 nm and an emission of 460 nm using a Tecan Infinite M1000 microplate reader. HDAC activity assays were performed in duplicate at each concentration. The fluorescent intensity data were analyzed using the computer software, Graphpad Prism. In the absence of the compound, the fluorescent intensity (Ft) in each data set was defined as 100% activity. In the absence of HDAC, the fluorescent intensity (Fb) in each data set was defined as 0% activity. The percent activity in the presence of each compound was calculated according to the following equation: % activity=(F−Fb)/(Ft−Fb), where F=the fluorescent intensity in the presence of the compound. The values of % activity versus a series of compound concentrations were then plotted using non-linear regression analysis of Sigmoidal dose-response curve generated with the equation Y=B+(T−B)/1+10((Log EC50−X)×Hill Slope), where Y=percent activity, B=minimum percent activity, T=maximum percent activity, X=logarithm of compound and Hill Slope=slope factor or Hill coefficient. The IC50 value was determined by the concentration causing a half-maximal percent activity.
# CT26 tumor [8] = test: Anti-cancer activity in CT26 tumor-bearing BALB/c mice; format: in vivo; details: for ORR (%): k-30 compounds 50 mg/kg, Regorafenib 30 mg/kg po daily; for ORR (%) / CR / PD / PR: first tumor assessment; for CR / PD / PR / CR^& / PD^& / PR^& / SD^&: number of mice; for ORR (%)^& / CR^& / PD^& / PR^& / SD^&: second tumor assessment on day 40
# Protocol: Six- to eight-week-old male BALB/c mice (National Laboratory Animal Center, Taiwan) were used in each treatment group for all animal experiments. […] CT26 cell line was purchased from ATCC. CT26 tumor cells were grown in McCoy's 5A supplemented with 10% (vol/vol) FBS at 37° C., 5% CO2. […] Tumors were allowed to grow for 8-11 days (tumor size about 150-250 mm^3) before randomization and treatment. Animals were euthanized when tumors reached more than 3000 mm^3 […]. CT26-bearing mice were given 2.5 mg/kg of anti-IgG (cat. #BE0089, Lot #716719J3, Bio X Cell) and anti-PD-1 (cat. #BE0146, Lot #735019J3, Bio X Cell) antibody by i.p. administration on days 8, 11, 14, 17, 20 and 23 post tumor implantation, and all antibodies were diluted to appropriate concentrations in 100 μL of sterile PBS (pH 7.4) (Invitrogen Life Technologies). […] The anti-cancer activity was measured from the start of the treatment until the tumor volume reached 3,000 mm^3. Tumor volume was calculated as length×width^2×0.5.
# The BALB/c mice bearing murine CT26 colon tumors were treated with various therapeutic modalities as indicated. […] CT26 tumor-bearing mice were euthanized when tumor volume reached 3000 mm^3 after tumor implantation. […] After 16 days of treatment, we continued to monitor the tumor size up to day 60. When tumor growth reappeared and tumor size reached at least 5 fold in mice with CR or PR response after first tumor assessment, it was defined as relapse/recurrence. […] Furthermore, we also investigate epigenetic immunomodulatory properties in series of GNTbm compounds including GNTbm-05/k-30, GNTbm-11/k-30, GNTbm-38/k-30 and GNTbm-39/k-30.
# CT26 tumor [9] = test: Survival rate in CT26 tumor-bearing mice; format: in vivo; details: Exp 1
# Protocol: The administration of antibody or drugs was performed for 16 days from day 8 to day 23. The tumor continued to grow in the tumor-bearing mice. The tumor volume of the mice was measured once every three or four days (twice/week). The tumor-bearing mice were regarded as dead when the tumor volume reached 3,000 mm^3. All treatment groups were recorded and analyzed.
# CT26 cells = test: Tumor rechallenge study (immune memory) in tumor-bearing mice; format: in vivo; details: Exp 1; mice resistant to CT26 re-challenge
# Protocol: All mice with PR/CR response after treatment went rechallenged with CT26 cells on the contralateral side (please see Table 6). The rechallenge with CT26 was performed on day 33, which was 7 days (day 33) after first tumor assessment (day 26), with injection of 5×10^6 CT26 cells to the right flank of each mouse. After rechallenge with CT26 cells, the tumor was allowed to grow for another 7 days (day 40) to determine the baseline as 1 fold. After a further 10 days (day 50), the tumor growth was evaluated for the rechallenge. If both of the following criteria are met, the response will be considered as relapse: first, the tumor size over 2 folds when compared to that of baseline; second, the tumor volume at day 50 was over 300 mm^3. Relapse happens when immune memory activity is not sufficiently activated. If the tumor growth is inhibited, it means the immune memory is activated.
# The mice were treated with different regimens for 16 days, and then the first tumor assessment was performed (day 26). […] Then rechallenge was performed with the same kind of cancer cells (CT26; 5×10^6) inoculated on the opposite flank for about another 7 days (day 40), and then the tumor volume would be determined as baseline (1 fold). The rechallenge tumor was allowed to grow for 10 days (day 50), and then the tumor size was measured to evaluate the immune memory as positive or negative. […]
# HDAC11, sequence (Q96DB2 whole entry): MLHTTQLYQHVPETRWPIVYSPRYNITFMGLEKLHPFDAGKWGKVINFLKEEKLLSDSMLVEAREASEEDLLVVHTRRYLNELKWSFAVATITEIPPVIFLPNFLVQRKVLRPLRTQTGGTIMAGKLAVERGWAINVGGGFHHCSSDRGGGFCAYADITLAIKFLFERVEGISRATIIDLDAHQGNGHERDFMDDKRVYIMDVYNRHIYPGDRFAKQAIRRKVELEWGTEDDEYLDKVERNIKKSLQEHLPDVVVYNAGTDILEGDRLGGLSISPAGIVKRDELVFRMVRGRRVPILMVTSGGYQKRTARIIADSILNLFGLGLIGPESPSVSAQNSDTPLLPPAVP
compound,measurement,setting,value
"Nc1ccccc1NC(=O)c1ccc(CNC(=O)OCc2cccnc2)cc1 [Entinostat, reference compound]",IC50,SK-BR-3,1.94 ± 0.1 µM
same,IC50,M10,4.34 ± 0.01 µM
same,IC50,MDA-MB-231,13.2 ± 1.34 µM
same,IC50,MDA-MB-453,1.82 ± 0.024 µM
same,IC50,SW48,5.21 ± 0.37 µM
same,Cell cycle arrest,M10 cells [1],significantly induced cell cycle arrest of M10 cells in the G2/M phase
same,Cells in G2/M phase,M10 cells [1],20.2%
same,Cell cycle arrest,MDA-MB-231 cells [2],significantly induced cell cycle arrest in G0/G1 phase
same,Cell cycle arrest,SW48 cells [3],significantly induced cell cycle arrest in G0/G1 phase
same,Cells in G0/G1 phase,SW48 cells [3],72.1%
same,Induction of apoptosis (sub-G1 phase),M10 cells [4],significantly induced apoptosis in M10 cells
same,Induction of apoptosis (sub-G1 phase),MDA-MB-231 cells [5],significantly induced apoptosis
same,Induction of apoptosis (sub-G1 phase),SW48 cells [6],significantly induced apoptosis
same,Level of histone H3 acetylation,[7],significantly increased the level of histone H3 acetylation
same,IC50,HDAC11,> 10 µM
CNC(=O)c1cc(Oc2ccc(NC(=O)Nc3ccc(Cl)c(C(F)(F)F)c3)c(F)c2)ccn1 [Regorafenib],ORR (%),"CT26 tumor [8]; Exp 1, initial tumor volume 245 mm3, strict criteria (PR ≤1 times)",11%
same,CR,CT26 tumor [8]; Exp 1,1
same,PD,CT26 tumor [8]; Exp 1,1
same,PR,CT26 tumor [8]; Exp 1,0
same,ORR (%)^&,CT26 tumor [8]; Exp 1,22%
same,CR^&,CT26 tumor [8]; Exp 1,2
same,PD^&,CT26 tumor [8]; Exp 1,5
same,PR^&,CT26 tumor [8]; Exp 1,0
same,SD^&,CT26 tumor [8]; Exp 1,2
same,Relapse (recurrence),"CT26 tumor [8]; Exp 1, tumor growth at least 5 fold in mice with CR or PR after first assessment, monitored up to day 60",0% (0/1)
same,ORR (%),"CT26 tumor [8]; Exp 2, initial tumor volume 192 mm3",0%
same,CR,CT26 tumor [8]; Exp 2,0
same,PD,CT26 tumor [8]; Exp 2,8
same,PR,CT26 tumor [8]; Exp 2,0
same,ORR (%)^&,CT26 tumor [8]; Exp 2,0%
same,CR^&,CT26 tumor [8]; Exp 2,0
same,PD^&,CT26 tumor [8]; Exp 2,9
same,PR^&,CT26 tumor [8]; Exp 2,0
same,SD^&,CT26 tumor [8]; Exp 2,0
same,Survival rate (%),CT26 tumor [9],11%
same,Immunity (rechallenge),CT26 cells,100% (1/1)
